Test results: patent publication US5474921A, “Expression and purification of phosphoinositide-specific phospholipase C-γ” (Merck & Co., Inc., priority 1993, dated 1995)

B1: bacterially expressed PLCγ1: rat brain PLCγ1 with C-terminal Glu-Glu-Phe epitope tag, expressed in E. coli BL21 (DE3) from plasmid pT5T-PLC4 (protein, UniProt P10686 2-1290, looked up)
1-phosphatidylinositol …: AGVGTPCANGCGPSAPSEAEVLHLCRSLEVGTVMTLFYSKKSQRPERKTFQVKLETRQITWSRGADKIEGSIDIREIKEIRPGKTSRDFDRYQEDPAFRPDQSHCFVILYGMEFRLKTLSLQATSEDEVNMWIKGLTWLMEDTLQAATPLQIERWLRKQFYSVDRNREDRISAKDLKNMLSQVNYRVPNMRFLRERLTDFEQRSGDITYGQFAQLYRSLMYSAQKTMDLPFLETNTLRTGERPELCQVSLSEFQQFLLEYQGELWAVDRLQVQEFMLSFLRDPLREIEEPYFFLDELVTFLFSKENSVWNSQLDAVCPETMNNPLSHYWISSSHNTYLTGDQFSSESSLEAYARCLRMGCRCIELDCWDGPDGMPVIYHGHTLTTKIKFSDVLHTIKEHAFVASEYPVILSIEDHCSIAQQRNMAQHFRKVLGDTLLTKPVDIAADGLPSPNQLKRKILIKHKKLAEGSAYEEVPTSVMYSENDISNSIKNGILYLEDPVNHEWYPHYFVLTSSKIYYSEETSSDQGNEDEEEPKEASGSTELHSSEKWFHGKLGAGRDGRHIAERLLTEYCIETGAPDGSFLVRESETFVGDYTLSFWRNGKVQHCRIHSRQDAGTPKFFLTDNLVFDSLYDLITHYQQVPLRCNEFEMRLSEPVPQTNAHESKEWYHASLTRAQAEHMLMRVPRDGAFLVRKRNEPNSYAISFRAEGKIKHCRVQQEGQTVMLGNSEFDSLVDLISYYEKHPLYRKMKLRYPINEEALEKIGTAEPDYGALYEGRNPGFYVEANPMPTFKCAVKALFDYKAQREDELTFTKSAIIQNVEKQDGGWWRGDYGGKKQLWFPSNYVEEMINPAILEPEREHLDENSPLGDLLRGVLDVPACQIAIRPEGKNNRLFVFSISMPSVAQWSLDVAADSQEELQDWVKKIREVAQTADARLTEGKMMERRKKIALELSELVVYCRPVPFDEEKIGTERACYRDMSSFPETKAEKYVNKAKGKKFLQYNRLQLSRIYPKGQRLDSSNYDPLPMWICGSQLVALNFQTPDKPMQMNQALFMAGGHCGYVLQPSTMRDEAFDPFDKSSLRGLEPCVICIEVLGARHLPKNGRGIVCPFVEIEVAGAEYDSTKQKTEFVVDNGLNPVWPAKPFHFQISNPEFAFLRFVVYEEDMFSDQNFLAQATFPVKGLKTGYRAVPLKNNYSEDLELASLLIKIDIFPAKENGDLSPFSGTSLRERASDASSQLFHVRAREGSFEARYQQPFEDFRISQEHLADHFDSRERRAPRRTRVNGDNRL
modifications: C-terminal Glu-Glu-Phe epitope tag

Key:
PLCγ1 = biological target: T1, PLCγ1 (Rattus norvegicus, UniProt P10686); assay: Assay of inhibitory activity of compounds against PLCγ1 (hydrolysis of [3H]-phosphatidyl inositol by purified bacterially expressed PLCγ1); assay type: biochemical; details: 30° C., pH 7.5, 0.1% deoxycholate, compound included prior to addition of enzyme
T1 construct: made in house; host or cells: E. coli BL21 (DE3)
T1 sequence (P10686 with tags, fused parts or gaps limits assumed): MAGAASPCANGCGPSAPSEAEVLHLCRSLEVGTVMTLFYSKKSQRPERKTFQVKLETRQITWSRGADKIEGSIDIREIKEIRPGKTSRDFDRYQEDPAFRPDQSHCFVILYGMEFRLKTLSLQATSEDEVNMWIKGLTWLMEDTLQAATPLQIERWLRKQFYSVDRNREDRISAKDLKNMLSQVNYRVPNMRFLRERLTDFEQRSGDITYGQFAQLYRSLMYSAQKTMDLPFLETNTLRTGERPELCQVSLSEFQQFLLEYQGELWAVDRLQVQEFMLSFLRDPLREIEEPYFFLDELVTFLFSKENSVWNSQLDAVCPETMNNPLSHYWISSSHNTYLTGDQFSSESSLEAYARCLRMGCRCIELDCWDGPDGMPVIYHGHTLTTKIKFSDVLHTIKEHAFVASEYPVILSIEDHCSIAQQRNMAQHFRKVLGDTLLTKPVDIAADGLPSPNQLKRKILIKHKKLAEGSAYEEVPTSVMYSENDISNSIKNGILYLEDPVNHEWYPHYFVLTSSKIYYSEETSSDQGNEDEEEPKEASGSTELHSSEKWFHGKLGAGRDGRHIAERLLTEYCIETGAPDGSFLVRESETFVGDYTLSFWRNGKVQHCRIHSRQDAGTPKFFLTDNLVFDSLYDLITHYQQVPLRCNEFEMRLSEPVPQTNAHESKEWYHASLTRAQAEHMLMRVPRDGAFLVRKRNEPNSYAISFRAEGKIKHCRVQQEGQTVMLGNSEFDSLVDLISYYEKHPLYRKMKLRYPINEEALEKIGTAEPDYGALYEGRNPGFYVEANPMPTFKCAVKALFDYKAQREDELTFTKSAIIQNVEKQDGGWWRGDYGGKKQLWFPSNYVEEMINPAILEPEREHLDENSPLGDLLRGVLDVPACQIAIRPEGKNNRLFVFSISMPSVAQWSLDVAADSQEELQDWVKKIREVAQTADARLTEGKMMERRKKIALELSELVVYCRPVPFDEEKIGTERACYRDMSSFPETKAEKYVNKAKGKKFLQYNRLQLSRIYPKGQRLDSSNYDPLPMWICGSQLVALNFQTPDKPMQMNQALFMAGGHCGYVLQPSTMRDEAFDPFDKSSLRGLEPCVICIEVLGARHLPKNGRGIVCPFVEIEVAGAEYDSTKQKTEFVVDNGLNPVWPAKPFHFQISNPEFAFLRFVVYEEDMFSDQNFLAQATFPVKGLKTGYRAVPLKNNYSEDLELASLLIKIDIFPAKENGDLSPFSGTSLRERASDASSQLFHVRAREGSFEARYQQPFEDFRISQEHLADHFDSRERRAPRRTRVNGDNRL
From the text: Subcloning of the PLCγ1 Coding Sequence. Rat brain cDNA is synthesized using rat brain poly(A)RNA as template by literature protocol (Sambrook, J. et al., Molecular Cloning: A Laboratory Manual, Cold Spring Harbor Laboratory Press, Cold Spring Harbor, N.Y.). From the published cDNA sequence of rat brain PLCγ1 (Suh, P. -G., Ryu, S. H., Moon, K. H., Suh, H. W., & Rhee, S. G. (1988) Proc. Natl. Acad. Sci. USA 85, 5419-5423), PCR primers, one which contains a BamHI restriction site upstream of the sequence complementary to the 5' end of the PLCγ gene (primer 01 ), and the other one which contains a HindIII site downstream of the 3' end of the PLCγ gene (primer 04), were synthesized. Carrying out the PCR using these primers (01 and 04) with the above mentioned rat brain eDNA as template, a DNA fragment with the entire rat brain PLCγ1 coding sequence, flanked by a 5' BamHI site and a 3' HindIII site, is generated. This BarnHI-HindIII fragment containing the coding sequence of PLCγ1 was subcloned into pBSII(S/K)+, generating pPLCl. The rest of the manipulations were accomplished using PCR to generate the appropriate DNA fragment. The 5' end of the PLCγ1 gene was altered to include a new BarnHi site and a sequence that would eventually translationally couple the expression of PLCγ to the .phi.10 gene of the pT5T vector as described by Eisenberg, S. P., Evans, R. J., Arend, W. P., Verderber, E., Brewer, M. T., Hannum, C. H., & Thompson, R. C. (1990) Nature(London) 343,341-346.
Using the isolated mutant fragments from each of these PCRs together as template, the final PCR was carried out using primers 03-06 which yielded, after restriction enzyme digestion, a SphI and HindIll fragment which was used to replace the analogous fragment in pPLC2. The resulting plasmid, pPLC3, contained the coding sequence of the PLCγ1 gene on a BarnHI-HindlII fragment with both the sequence encoding the Glu-Glu-Phe tag at the 3' end as well as the changed AGG codons. […] (SEQ.ID.NO.: 3) Finally, the BarnHI-HindIII fragment from pPLC3 was transferred into the BamHI-HindIII site of pTST, generating pTST-PLC4. This construct was used to produce PLCγ1 (containing the Glu-Glu-Phe epitope tag at the C-terminus) translationally coupled to the expression of .phi.10 protein in the pT5T vector.
Expression and Purification of PLCγ1. To express PLCγ1 the plasmid pT5T-PLC4 was transformed into E. coli BL21 (DE3). The transformed cells were grown in LB media containing ampicillin (100 μg/ml) and tetracycline (12.5 μg/ml) at 20° C. until the optical density of the cultures at 550 nm was equal to 0.8. This transformed bacterial cell has been deposited with the ATCC and has been assigned the number ATCC 69421. Expression of PLCγ1 was then induced by addition of isopropyl β-D-thiogalactopyranoside (0.5 mM final concentration) to the cultures. After growing for another 6 hours the cells were harvested and PLCγ1 was purified as described below. PLCγ1 was isolated from E. coli by resuspending a cell pellet in standard buffer, 50 mM Tris-C1 pH 8.0, 2 mM MgCl2, 10 mM CaCl2, 1 mM EGTA, 5 mM DTT, 5 mM streptomycin sulfate, 1 mM PMSF, 2 μg/ml leupeptin, 2 μg/ml antipain, 10 μg/ml aprotinin (approximately 5 g wet packed cells/10 ml buffer). The resuspended cells were broken by sonication and the cell debris pelleted by centrifugation at 30,000×g at 4° C. for 30 minutes. The soluble fraction was applied at a flow rate of approximately 0.5 ml/min. to a 2 ml column of the monoclonal antibody YL 1/2(4 mg antibody/ml resin) coupled to cyanogen bromide activated Sepharose. The YL1/2 Sepharose column, which binds the epitope tag Glu-Glu-Phe had previously been equilibrated with standard buffer. After loading the protein onto the column, the column was washed with standard buffer (100 mls) PLCγ1 was eluted with 3×5ml 5 mM Asp-Phe dipeptide (Sigma) in standard buffer. The column was regenerated by washing with phosphate buffered saline (PBS)+2 M NaCl and then stored in PBS +0.02% NaN3 (wt./vol). […]

phospholipase C = details: background statement; cited from earlier work
platelets = details: background statement; cited from earlier work
macrophages = details: background statement; cited from earlier work
[1] = Assay of purified PLCγ1 activity (hydrolysis of [3H]-phosphatidyl inositol); assay type: biochemical; details: 30° C., 50 mM HEPES pH 7.5; bacterially expressed vs naturally derived enzyme in the same assay
From the text: Reactions were never allowed to proceed to more than 10% completion based on the limiting substrate.

Row | Molecule | IC50 (PLCγ1; Table 1) | other results
1 | O=P(O)(O)C(O)c1cccc(Oc2ccccc2Cl)c1 (stereo not drawn) [drawing 1: R3=Cl, R4=H, R5=H] | 17 µM | 
2 | O=P(O)(O)C(O)c1cccc(Oc2ccc(Cl)c(Cl)c2)c1 (stereo not drawn) [drawing 1: R3=H, R4=Cl, R5=Cl] | 56 µM | 
3 | O=P(O)(O)C(O)c1cccc(Oc2cccc(Cl)c2)c1 (stereo not drawn) [drawing 1: R3=H, R4=Cl, R5=H] | 10 µM | 
4 | Cc1ccc(Oc2cccc(C(O)P(=O)(O)O)c2)cc1 (stereo not drawn) [drawing 1: R3=H, R4=H, R5=CH3] | 13 µM | 
5 | O=P(O)(O)C(O)c1cccc(Oc2ccc(Cl)cc2)c1 (stereo not drawn) [drawing 1: R3=H, R4=H, R5=Cl] | 36 µM | 
6 | O=P(O)(O)C(O)c1cccc(Oc2ccccc2)c1 (stereo not drawn) [drawing 1: R3=H, R4=H, R5=H] | 190 µM | 
7 | COc1ccc(Oc2cccc(C(O)P(=O)(O)O)c2)cc1 (stereo not drawn) [drawing 1: R3=H, R4=H, R5=OCH3] | 7 µM | 
8 | O=P(O)(O)C(O)c1cccc(Oc2ccc(O)cc2)c1 (stereo not drawn) [drawing 1: R3=H, R4=H, R5=OH] | 3 µM | 
9 | CCc1cccc(Oc2ccc(C(O)P(=O)(O)O)cc2)c1 (stereo not drawn) [drawing 2: R3=H, R4=CH2CH3, R5=H] |  | IC50 (PLCγ1; Table 2): 37 µM
10 | O=P(O)(O)C(O)c1ccc(Oc2cccc(Cl)c2)cc1 (stereo not drawn) [drawing 2: R3=H, R4=Cl, R5=H] |  | IC50 (PLCγ1; Table 2): 5 µM
11 | COc1cccc(Oc2ccc(C(O)P(=O)(O)O)cc2)c1 (stereo not drawn) [drawing 2: R3=H, R4=OCH3, R5=H] |  | IC50 (PLCγ1; Table 2): 8 µM
12 | c1ccc2c(c1)Nc1ccccc1S2 [phenothiazine] |  | inhibition of phospholipase C (phospholipase C): inhibited; inhibition of stimulated release of prostaglandins from platelets (platelets): inhibit; inhibition of stimulated release of arachidonic acid from macrophages (macrophages): inhibit
13 | B1 |  | specific activity [1]: 13.8 µmol/min/mg
